Measured values published in US6235284A, “Synthetic polypeptides belonging to the hepatitis C virus (HCV) and which can be used especially for detecting the latter” (Bio Merieux, priority 1992, dated 2001).

Key:
[1] = system: anti-HCV antibodies (HCV-positive sera); experiment: ELISA detection of anti-HCV antibodies in HCV-positive sera with adsorbed peptides; type: binding, human
Outline: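 Peptides were adsorbed at 10 μg/ml for 2 h at 37 °C and blocked with 10% goat serum. Sera, first tested at 1/100, were incubated 1 h at 37 °C, detected with peroxidase anti-human IgG and OPD, and read at OD 492 nm (in places ×10^3), in duplicate.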

[2] = system: anti-HCV antibodies binding onto peptide S42G; experiment: Inhibition test: inhibition of binding of anti-HCV antibodies onto peptide S42G by preincubation with peptides; design: species or system human; conditions: inhibitor 0.1 mg/ml
Method: To evaluate this hypothesis, inhibition tests, whose usefulness lies in the fact that they allow the formation of the antigen-antibody complex in liquid medium, were carried out, thus dispensing with possible artifacts linked to the adsorption of peptides onto a solid support.
The inhibition experiments were carried out by reaction, in liquid phase, of the HCV sera with the peptides followed by reaction of the remaining antibodies with the peptide adsorbed onto the microplates. The inhibitory peptides are incubated at a concentration of 0.1 mg/ml with sera of appropriate dilution. The rest of the manipulation is identical to that described for the ELISA test.
Peptide S18D (SEQ ID NO:11), or V22G (SEQ ID NO:12), or a mixture of both, is preincubated overnight in the presence of the serum to be tested. The antibodies can bind onto the corresponding sites.

## V22G: a peptide of 24 amino acids covering sequence 22 to 45 of the CORE protein (VKFPGGGQIVGGVYLLPRRGPRLG)
[1]; Table 2, line 68, serum not named (below CTS), 1/100
  optical density at 492 nm: 2.500 OD
[1]; Table 2, line 69, serum not named (below CTS), 1/1000
  optical density at 492 nm: 1.605 OD
[1]; Table 2, line 70, serum not named (below CTS), 1/10000
  optical density at 492 nm: 0.255 OD
[1]; Table 2, line 75, serum B4, 1/1000
  optical density at 492 nm: 1.214 OD
[1]; Table 2, line 76, serum B4, 1/1000 (so in the source)
  optical density at 492 nm: 0.144 OD
[1]; Table 2, serum B1, 1/100
  optical density at 492 nm: 1.225 OD
[1]; Table 2, serum B2, 1/100
  optical density at 492 nm: 0.756 OD
[1]; Table 2, serum B3, 1/100
  optical density at 492 nm: 0.329 OD
[1]; Table 2, serum B4, 1/100
  optical density at 492 nm: 2.500 OD
[1]; Table 2, serum B5, 1/100
  optical density at 492 nm: 0.863 OD
[1]; Table 2, serum B6, 1/100
  optical density at 492 nm: 0.749 OD
[1]; Table 2, serum B7, 1/100
  optical density at 492 nm: 2.102 OD
[1]; Table 2, serum B8, 1/100
  optical density at 492 nm: 0.358 OD
[1]; Table 2, serum B9, 1/100
  optical density at 492 nm: 2.082 OD
[1]; Table 2, serum B10, 1/100
  optical density at 492 nm: 0.225 OD
[1]; Table 2, serum B11, 1/100
  optical density at 492 nm: 0.616 OD
[1]; Table 2, serum B12, 1/100
  optical density at 492 nm: 1.017 OD
[1]; Table 2, serum B13, 1/100
  optical density at 492 nm: 0.304 OD
[1]; Table 2, serum B14, 1/100
  optical density at 492 nm: 0.186 OD
[1]; Table 2, serum B15, 1/100
  optical density at 492 nm: 0.954 OD
[1]; Table 2, serum B16, 1/100
  optical density at 492 nm: 2.500 OD
[1]; Table 2, serum CTS, 1/100
  optical density at 492 nm: 2.500 OD
[1]; Table 2, serum CTS, 1/1000
  optical density at 492 nm: 1.155 OD
[1]; Table 2, serum CTS, 1/10000
  optical density at 492 nm: 0.043 OD
[1]; Table 2, serum P1, 1/100
  optical density at 492 nm: 0.426 OD
[1]; Table 2, serum P2, 1/100
  optical density at 492 nm: 0.290 OD
[1]; Table 2, serum P3, 1/100
  optical density at 492 nm: 0.503 OD
[1]; Table 2, serum P4, 1/100
  optical density at 492 nm: 1.739 OD
[1]; Table 2, serum P5, 1/100
  optical density at 492 nm: 2.500 OD
[1]; Table 2, serum P5, 1/1000
  optical density at 492 nm: 2.293 OD
[1]; Table 2, serum P5, 1/10000
  optical density at 492 nm: 0.578 OD
[1]; Table 2, serum P6, 1/100
  optical density at 492 nm: 0.000 OD
[1]; Table 2, serum P7, 1/100
  optical density at 492 nm: 2.500 OD
[1]; Table 2, serum P7, 1/1000
  optical density at 492 nm: 1.590 OD
[1]; Table 2, serum P7, 1/10000
  optical density at 492 nm: 0.237 OD
[1]; Table 2, serum P8, 1/100
  optical density at 492 nm: 2.241 OD
[1]; Table 2, serum P8, 1/1000
  optical density at 492 nm: 0.476 OD
[1]; Table 2, serum P8, 1/10000
  optical density at 492 nm: 0.049 OD
[1]; Table 2, serum P9, 1/100
  optical density at 492 nm: 0.008 OD
[1]; Table 2, serum P10, 1/100
  optical density at 492 nm: 0.026 OD
[1]; Table 2, serum P11, 1/100
  optical density at 492 nm: 2.500 OD
[1]; Table 2, serum P12, 1/100
  optical density at 492 nm: 2.500 OD
[1]; Table 2, serum P12, 1/1000
  optical density at 492 nm: 2.500 OD
[1]; Table 2, serum P12, 1/10000
  optical density at 492 nm: 0.106 OD
[1]; Table 2, serum P13, 1/100
  optical density at 492 nm: 0.013 OD
[1]; Table 2, serum P14, 1/100
  optical density at 492 nm: 1.778 OD
[1]; Table 2, serum P15, 1/100
  optical density at 492 nm: 1.810 OD
[1]; Table 2, serum P16, 1/100
  optical density at 492 nm: 2.500 OD
[1]; Table 2, serum P17, 1/100
  optical density at 492 nm: 1.832 OD
[1]; Table 2, serum P18, 1/100
  optical density at 492 nm: 2.500 OD
[1]; Table 2, serum P18, 1/1000
  optical density at 492 nm: 0.598 OD
[1]; Table 2, serum P18, 1/10000
  optical density at 492 nm: 0.072 OD
[1]; Table 2, serum P19, 1/100
  optical density at 492 nm: 0.010 OD
[1]; Table 2, serum P20, 1/100
  optical density at 492 nm: 2.249 OD
[1]; Table 2, serum P21, 1/100
  optical density at 492 nm: 2.272 OD
[1]; Table 2, serum P22, 1/100
  optical density at 492 nm: 2.500 OD
[1]; Table 2, serum P22, 1/1000
  optical density at 492 nm: 0.702 OD
[1]; Table 2, serum P22, 1/10000
  optical density at 492 nm: 0.088 OD
[1]; Table 2, serum P23, 1/100
  optical density at 492 nm: 0.015 OD
[1]; Table 2, serum P24, 1/100
  optical density at 492 nm: 0.579 OD
[1]; Table 2, serum P25, 1/100
  optical density at 492 nm: 2.252 OD
[1]; Table 2, serum P25, 1/1000
  optical density at 492 nm: 0.695 OD
[1]; Table 2, serum P25, 1/10000
  optical density at 492 nm: 0.089 OD
[1]; Table 2, serum P26, 1/100
  optical density at 492 nm: 2.500 OD
[1]; Table 2, serum P26, 1/1000
  optical density at 492 nm: 1.541 OD
[1]; Table 2, serum P26, 1/10000
  optical density at 492 nm: 0.199 OD
[1]; Table 2, serum P27, 1/100
  optical density at 492 nm: 1.600 OD
[1]; Table 2, serum P28, 1/100
  optical density at 492 nm: 2.500 OD
[1]; Table 2, serum P29, 1/100
  optical density at 492 nm: 0.005 OD
[1]; Table 2, serum P30, 1/100
  optical density at 492 nm: 2.500 OD
[1]; Table 2, serum P31, 1/100
  optical density at 492 nm: 2.500 OD
[1]; Table 2, serum P31, 1/1000
  optical density at 492 nm: 2.500 OD
[1]; Table 2, serum P31, 1/10000
  optical density at 492 nm: 0.847 OD
[1]; Table 2, serum P32, 1/100
  optical density at 492 nm: 1.639 OD
[1]; Table 2, serum P33, 1/100
  optical density at 492 nm: 1.987 OD
[1]; Table 2, serum P34, 1/100
  optical density at 492 nm: 1.618 OD
[1]; Table 2, serum P35, 1/100
  optical density at 492 nm: 1.504 OD
[1]; Table 2, serum P36, 1/100
  optical density at 492 nm: 1.226 OD
[1]; Table 2, serum P37, 1/100
  optical density at 492 nm: 2.500 OD
[1]; Table 2, serum P37, 1/1000
  optical density at 492 nm: 0.865 OD
[1]; Table 2, serum P37, 1/10000
  optical density at 492 nm: 0.128 OD
[1]; Table 2, serum P38, 1/100
  optical density at 492 nm: 2.500 OD
[1]; Table 2, serum P38, 1/1000
  optical density at 492 nm: 1.582 OD
[1]; Table 2, serum P38, 1/10000
  optical density at 492 nm: 0.057 OD
[1]; Table 2, serum P39, 1/100
  optical density at 492 nm: 1.835 OD
[1]; Table 2, serum P40, 1/100
  optical density at 492 nm: 2.500 OD
[1]; Table 2, serum P41, 1/100
  optical density at 492 nm: 2.218 OD
[1]; Table 2, serum P42, 1/100
  optical density at 492 nm: 0.000 OD
[1]; in words
  reactivity towards HCV-positive sera: carry one or more epitopes
[2]; serum B4, 1/10,000
  inhibition: 83.6%
[2]; serum P5, 1/10,000
  inhibition: 83.0%
[2]; serum P7, 1/10,000
  inhibition: 81.0%
[2]; serum P8, 1/10,000
  inhibition: 77.4%
[2]; serum P18, 1/10,000
  inhibition: 48.0%
[2]; serum P22, 1/10,000
  inhibition: 65.5%
[2]; serum P25, 1/10,000
  inhibition: 71.8%
[2]; serum P31, 1/10,000
  inhibition: 39.9%
[2]; serum P37, 1/10,000
  inhibition: 88.7%
[2]; serum P38, 1/10,000
  inhibition: 70.3%
